From the OligoGym collection
“And” between values parts separate entries of the source, which are not always exact repeats. Equal entries are not always repeated. HELM strings list units from the 5' end as sugar, base in round brackets, then linkage (d deoxyribose, r ribose, m 2'-O-methyl, p phosphodiester). Methylation of C is not given here. [moe] = 2'-O-(2-methoxyethyl) (MOE); [cEt] = constrained ethyl (cEt); [sp] = phosphorothioate linkage

Molecular target: HBV
Details: ASO

Substance | target mRNA inhibition (HepG2, 0.07 µM) | also measured
RNA1{[moe](G)[sp].[cEt](A)[sp].[cEt](G)[sp].d(G)[sp].d(C)[sp].d(A)[sp].d(T)[sp].d(A)[sp].d(G)[sp].d(C)[sp].d(A)[sp].d(G)[sp].d(C)[sp].[cEt](A)[sp].[cEt](G)[sp].[moe](G)}$$$$V2.0 | 64% and 67% | 
RNA1{[moe](G)[sp].[cEt](A)[sp].[cEt](G)[sp].d(T)[sp].d(T)[sp].d(C)[sp].d(C)[sp].d(G)[sp].d(C)[sp].d(A)[sp].d(G)[sp].d(T)[sp].d(A)[sp].[cEt](T)[sp].[cEt](G)[sp].[moe](G)}$$$$V2.0 | 83% and 76% | 
RNA1{[moe](G)[sp].[cEt](A)[sp].d(A)[sp].d(G)[sp].d(T)[sp].d(C)[sp].d(C)[sp].d(A)[sp].d(C)[sp].d(C)[sp].d(A)[sp].d(C)[sp].[cEt](G)[sp].[moe](A)[sp].[cEt](G)[sp].[moe](T)}$$$$V2.0 | 43% and 50% | 
RNA1{[moe](G)[sp].[cEt](C)[sp].[cEt](A)[sp].d(G)[sp].d(T)[sp].d(A)[sp].d(T)[sp].d(G)[sp].d(G)[sp].d(A)[sp].d(T)[sp].d(C)[sp].d(G)[sp].[cEt](G)[sp].[cEt](C)[sp].[moe](A)}$$$$V2.0 | 77% and 75% | 
RNA1{[moe](G)[sp].[cEt](G)[sp].[cEt](A)[sp].d(G)[sp].d(T)[sp].d(T)[sp].d(C)[sp].d(C)[sp].d(G)[sp].d(C)[sp].d(A)[sp].d(G)[sp].d(T)[sp].[cEt](A)[sp].[cEt](T)[sp].[moe](G)}$$$$V2.0 | 90% and 76% | target mRNA inhibition (HepG2, 0.0092593 µM): 13%; target mRNA inhibition (HepG2, 0.0277778 µM): 42%; target mRNA inhibition (HepG2, 0.0833333 µM): 74%; target mRNA inhibition (HepG2, 0.25 µM): 89%
RNA1{[moe](G)[sp].[cEt](T)[sp].[cEt](G)[sp].d(C)[sp].d(A)[sp].d(G)[sp].d(A)[sp].d(G)[sp].d(G)[sp].d(T)[sp].d(G)[sp].d(A)[sp].d(A)[sp].[cEt](G)[sp].[cEt](C)[sp].[moe](G)}$$$$V2.0 | 67% and 70% | 
RNA1{[moe](G)[sp].[moe](A)[sp].[moe](A)[sp].[moe](C)[sp].[moe](C)[sp].d(A)[sp].d(C)[sp].d(T)[sp].d(G)[sp].d(A)[sp].d(A)[sp].d(C)[sp].d(A)[sp].d(A)[sp].[moe](A)[sp].[moe](T)}$$$$V2.0 | 34% and 36% | 
RNA1{[moe](G)[sp].[moe](A)[sp].[moe](A)[sp].[moe](C)[sp].[moe](T)[sp].d(G)[sp].d(G)[sp].d(A)[sp].d(G)[sp].d(C)[sp].d(C)[sp].d(A)[sp].d(C)[sp].d(C)[sp].[moe](A)[sp].[moe](G)[sp].[moe](C)}$$$$V2.0 | 41% and 50% | 
RNA1{[moe](G)[sp].[moe](A)[sp].[moe](A)[sp].[moe](C)[sp].d(C)[sp].d(A)[sp].d(C)[sp].d(T)[sp].d(G)[sp].d(A)[sp].d(A)[sp].d(C)[sp].d(A)[sp].[moe](A)[sp].[moe](A)[sp].[moe](T)}$$$$V2.0 | 34% and 23% | 
RNA1{[moe](G)[sp].[moe](A)[sp].[moe](A)[sp].[moe](C)[sp].d(T)[sp].d(G)[sp].d(G)[sp].d(A)[sp].d(G)[sp].d(C)[sp].d(C)[sp].d(A)[sp].d(C)[sp].[moe](C)[sp].[moe](A)[sp].[moe](G)[sp].[moe](C)}$$$$V2.0 | 69% and 49% | 
RNA1{[moe](G)[sp].[moe](A)[sp].[moe](A)[sp].d(G)[sp].d(T)[sp].d(C)[sp].d(C)[sp].d(A)[sp].d(C)[sp].d(C)[sp].d(A)[sp].d(C)[sp].[moe](G)[sp].[moe](A)[sp].[moe](G)[sp].[moe](T)[sp].[moe](C)}$$$$V2.0 | 33% and 23% | 
RNA1{[moe](G)[sp].[moe](A)[sp].[moe](G)[sp].[moe](A)[sp].[moe](A)[sp].[moe](G)[sp].d(T)[sp].d(C)[sp].d(C)[sp].d(A)[sp].d(C)[sp].d(C)[sp].d(A)[sp].d(C)[sp].d(G)[sp].[moe](A)[sp].[moe](G)}$$$$V2.0 | 27% and 23% | 
RNA1{[moe](G)[sp].[moe](A)[sp].[moe](G)[sp].[moe](A)[sp].d(A)[sp].d(G)[sp].d(T)[sp].d(C)[sp].d(C)[sp].d(A)[sp].d(C)[sp].d(C)[sp].d(A)[sp].[moe](C)[sp].[moe](G)[sp].[moe](A)[sp].[moe](G)}$$$$V2.0 | 42% and 29% | 
RNA1{[moe](G)[sp].[moe](A)[sp].[moe](G)[sp].[moe](G)[sp].[moe](C)[sp].d(A)[sp].d(T)[sp].d(A)[sp].d(G)[sp].d(C)[sp].d(A)[sp].d(G)[sp].d(C)[sp].d(A)[sp].[moe](G)[sp].[moe](G)}$$$$V2.0 | 44% and 39% | 
RNA1{[moe](G)[sp].[moe](A)[sp].[moe](G)[sp].[moe](G)[sp].[moe](T)[sp].d(G)[sp].d(A)[sp].d(A)[sp].d(G)[sp].d(C)[sp].d(G)[sp].d(A)[sp].d(A)[sp].d(G)[sp].[moe](T)[sp].[moe](G)}$$$$V2.0 | 46% and 39% | 
RNA1{[moe](G)[sp].[moe](A)[sp].[moe](G)[sp].d(G)[sp].d(C)[sp].d(A)[sp].d(T)[sp].d(A)[sp].d(G)[sp].d(C)[sp].d(A)[sp].d(G)[sp].[moe](C)[sp].[moe](A)[sp].[moe](G)[sp].[moe](G)}$$$$V2.0 | 58% and 57% | 

Substance | target mRNA inhibition (HepG2, 0.07 µM) | also measured
RNA1{[moe](G)[sp].[moe](A)[sp].[moe](G)[sp].d(G)[sp].d(T)[sp].d(G)[sp].d(A)[sp].d(A)[sp].d(G)[sp].d(C)[sp].d(G)[sp].d(A)[sp].[moe](A)[sp].[moe](G)[sp].[moe](T)[sp].[moe](G)[sp].[moe](C)}$$$$V2.0 | 81% and 71% | 
RNA1{[moe](G)[sp].[moe](A)[sp].[moe](G)[sp].d(T)[sp].d(T)[sp].d(C)[sp].d(C)[sp].d(G)[sp].d(C)[sp].d(A)[sp].d(G)[sp].d(T)[sp].[moe](A)[sp].[moe](T)[sp].[moe](G)[sp].[moe](G)}$$$$V2.0 | 54% and 30% | 
RNA1{[moe](G)[sp].[moe](A)[sp].[moe](T)[sp].[moe](G)[sp].[moe](A)[sp].d(G)[sp].d(G)[sp].d(C)[sp].d(A)[sp].d(T)[sp].d(A)[sp].d(G)[sp].d(C)[sp].d(A)[sp].[moe](G)[sp].[moe](C)[sp].[moe](A)}$$$$V2.0 | 46% and 21% | 
RNA1{[moe](G)[sp].[moe](C)[sp].[moe](A)[sp].[moe](C)[sp].[moe](T)[sp].[moe](A)[sp].d(G)[sp].d(T)[sp].d(A)[sp].d(A)[sp].d(A)[sp].d(C)[sp].d(T)[sp].d(G)[sp].d(A)[sp].[moe](G)[sp].[moe](C)}$$$$V2.0 | 74% and 65% | 
RNA1{[moe](G)[sp].[moe](C)[sp].[moe](A)[sp].[moe](C)[sp].[moe](T)[sp].d(A)[sp].d(G)[sp].d(T)[sp].d(A)[sp].d(A)[sp].d(A)[sp].d(C)[sp].d(T)[sp].d(G)[sp].[moe](A)[sp].[moe](G)[sp].[moe](C)}$$$$V2.0 | 58% and 63% | 
RNA1{[moe](G)[sp].[moe](C)[sp].[moe](A)[sp].[moe](C)[sp].d(T)[sp].d(A)[sp].d(G)[sp].d(T)[sp].d(A)[sp].d(A)[sp].d(A)[sp].d(C)[sp].d(T)[sp].[moe](G)[sp].[moe](A)[sp].[moe](G)}$$$$V2.0 | 52% and 53% | 
RNA1{[moe](G)[sp].[moe](C)[sp].[moe](A)[sp].[moe](T)[sp].[moe](A)[sp].d(G)[sp].d(C)[sp].d(A)[sp].d(G)[sp].d(C)[sp].d(A)[sp].d(G)[sp].d(G)[sp].d(A)[sp].[moe](T)[sp].[moe](G)}$$$$V2.0 | 57% and 54% | 
RNA1{[moe](G)[sp].[moe](C)[sp].[moe](A)[sp].d(G)[sp].d(A)[sp].d(G)[sp].d(G)[sp].d(T)[sp].d(G)[sp].d(A)[sp].d(A)[sp].d(G)[sp].d(C)[sp].[cEt](G)[sp].[cEt](A)[sp].[cEt](A)}$$$$V2.0 | 71% and 50% | 
RNA1{[moe](G)[sp].[moe](C)[sp].d(A)[sp].d(G)[sp].d(A)[sp].d(G)[sp].d(G)[sp].d(T)[sp].d(G)[sp].d(A)[sp].d(A)[sp].[moe](G)[sp].[moe](C)[sp].[moe](G)[sp].[moe](A)[sp].[moe](A)[sp].[moe](G)}$$$$V2.0 | 20% and 40% | 
RNA1{[moe](G)[sp].[moe](C)[sp].d(A)[sp].d(G)[sp].d(A)[sp].d(G)[sp].d(G)[sp].d(T)[sp].d(G)[sp].d(A)[sp].d(A)[sp].[moe](G)[sp].[moe](C)[sp].[moe](G)[sp].[moe](A)[sp].[moe](A)}$$$$V2.0 | 58% and 57% | 
RNA1{[moe](G)[sp].[moe](C)[sp].d(A)[sp].d(G)[sp].d(T)[sp].d(A)[sp].d(T)[sp].d(G)[sp].d(G)[sp].d(A)[sp].d(T)[sp].[moe](C)[sp].[moe](G)[sp].[moe](G)[sp].[moe](C)[sp].[moe](A)}$$$$V2.0 | 76% and 73% | target mRNA inhibition (HepG2, 0.0092593 µM): 2%; target mRNA inhibition (HepG2, 0.0277778 µM): 25%; target mRNA inhibition (HepG2, 0.0833333 µM): 44%; target mRNA inhibition (HepG2, 0.25 µM): 77%
RNA1{[moe](G)[sp].[moe](G)[sp].[moe](A)[sp].[moe](G)[sp].[moe](T)[sp].d(T)[sp].d(C)[sp].d(C)[sp].d(G)[sp].d(C)[sp].d(A)[sp].d(G)[sp].d(T)[sp].d(A)[sp].[moe](T)[sp].[moe](G)}$$$$V2.0 | 74% and 50% | 
RNA1{[moe](G)[sp].[moe](G)[sp].[moe](C)[sp].[moe](A)[sp].[moe](T)[sp].d(A)[sp].d(G)[sp].d(C)[sp].d(A)[sp].d(G)[sp].d(C)[sp].d(A)[sp].d(G)[sp].d(G)[sp].[moe](A)[sp].[moe](T)[sp].[moe](G)}$$$$V2.0 | 0% | 
RNA1{[moe](G)[sp].[moe](G)[sp].[moe](C)[sp].d(A)[sp].d(T)[sp].d(A)[sp].d(G)[sp].d(C)[sp].d(A)[sp].d(G)[sp].d(C)[sp].d(A)[sp].[moe](G)[sp].[moe](G)[sp].[moe](A)[sp].[moe](T)[sp].[moe](G)}$$$$V2.0 | 68% and 66% | target mRNA inhibition (HepG2, 0.0092593 µM): 16%; target mRNA inhibition (HepG2, 0.0277778 µM): 11%; target mRNA inhibition (HepG2, 0.0833333 µM): 40%; target mRNA inhibition (HepG2, 0.25 µM): 66%
RNA1{[moe](G)[sp].[moe](G)[sp].[moe](T)[sp].[moe](G)[sp].[moe](A)[sp].d(A)[sp].d(G)[sp].d(C)[sp].d(G)[sp].d(A)[sp].d(A)[sp].d(G)[sp].d(T)[sp].d(G)[sp].[moe](C)[sp].[moe](A)}$$$$V2.0 | 51% and 46% | 
